US9040524B2, “Antifungal 5,6-dihydro-4H-pyrrolo[1,2-a][1,4]-benzodiazepines and 6H-pyrrolo[1,2-a][1,4]benzodiazepines substituted with bicycle benzene derivatives” (JANSSEN PHARMACEUTICA NV, priority 2010, dated 2015)

Columns and labels:
Type in all cases: cell-based
Microsporum canis = assay: Antifungal activity in vitro, resazurin growth inhibition screen: Microsporum canis; details: Microsporum canis B68128; for IC50: read-out: Inf. B pIC50 (converted)
Method: (§1) The standard susceptibility screen was performed in 96-well plates (U-bottom, Greiner Bio-One). Serial dilutions (2-fold or 4-fold) of 20 mM compound stock solutions were made in 100% DMSO, followed by an intermediate dilution step in water. These serial dilutions (10 μl) were then spotted onto test-plates that could be stored in the dark at 4° C. for a maximum period of 2 weeks. An adequate broad dose-range was included with 64 μM as the highest in-test concentration. […] The different fungal species/isolates (Table 3a) were cryopreserved and 1/1000 diluted in medium just prior to use. A standard inoculum of 200 μl containing 10^3 colony-forming unit (cfu) was then added to each well. A positive control (100% growth=fungal culture without antifungal) and a negative control (0% growth=RPMI-MOPS medium) were included on each plate.

[1] = tested on: Trichophyton mentagrophytes; assay: Antifungal activity in vitro, resazurin growth inhibition screen: Trichophyton mentagrophytes; details: Trichophyton mentagrophytes B70554; for IC50: read-out: Inf. G pIC50 (converted)
Method: as §1

Trichophyton rubrum = assay: Antifungal activity in vitro, resazurin growth inhibition screen: Trichophyton rubrum; details: Trichophyton rubrum B68183; for IC50: read-out: Inf. C pIC50 (converted)
Method: as §1

Scedosporium apiospermum = assay: Antifungal activity in vitro, resazurin growth inhibition screen: Scedosporium apiospermum; details: Scedosporium apiospermum IHEM3817; for IC50: read-out: Inf. H pIC50 (converted)
Method: as §1

Scedosporium prolificans = assay: Antifungal activity in vitro, resazurin growth inhibition screen: Scedosporium prolificans; details: Scedosporium prolificans IHEM21157; for IC50: Lomentospora prolificans, read-out: Inf. I pIC50 (converted)
Method: as §1

Sporothrix schenkii = assay: Antifungal activity in vitro, resazurin growth inhibition screen: Sporothrix schenkii; details: Sporothrix schenkii B62482; for IC50: read-out: Inf. A pIC50 (converted)
Method: as §1

Aspergillus fumigatus = assay: Antifungal activity in vitro, resazurin growth inhibition screen: Aspergillus fumigatus; details: Aspergillus fumigatus B42928; for IC50: read-out: Inf. E pIC50 (converted)
Method: as §1

Candida parapsilosis = assay: Antifungal activity in vitro, resazurin growth inhibition screen: Candida parapsilosis; details: Candida parapsilosis B66126; for IC50: Lodderomyces parapsilosis, read-out: Inf. D pIC50 (converted)
Method: as §1

Cryptococcus neoformans = assay: Antifungal activity in vitro, resazurin growth inhibition screen: Cryptococcus neoformans; details: Cryptococcus neoformans B66663; for IC50: read-out: Inf. F pIC50 (converted)
Method: as §1

Rhizopus oryzae = assay: Antifungal activity in vitro, resazurin growth inhibition screen: Rhizopus oryzae; details: Rhizopus oryzae IHEM5223; for IC50: Rhizopus arrhizus, read-out: Inf. J pIC50 (converted)
Method: as §1

Rhizomucor miehei = assay: Antifungal activity in vitro, resazurin growth inhibition screen: Rhizomucor miehei; details: Rhizomucor miehei IHEM13391; for IC50: read-out: Inf. K pIC50 (converted)
Method: as §1

Structure (SMILES) | Inf. B pIC50 (Microsporum canis) | Inf. G pIC50 [1] | Inf. C pIC50 (Trichophyton rubrum) | Inf. H pIC50 (Scedosporium apiospermum) | Inf. I pIC50 (Scedosporium prolificans) | Inf. A pIC50 (Sporothrix schenkii) | Inf. E pIC50 (Aspergillus fumigatus) | Inf. D pIC50 (Candida parapsilosis) | Inf. F pIC50 (Cryptococcus neoformans) | Inf. J pIC50 (Rhizopus oryzae) | Inf. K pIC50 (Rhizomucor miehei) | further results
Fc1cccc2c1CN=C(c1ccc3c(c1)OC(F)(F)O3)c1cccn1-2 [Compound 77, 4-(2,2-difluoro-1,3-benzodioxol-5-yl)-7-fluoro-6H-pyrrolo[1,2-a][1,4]benzo-diazepine] | – | – | – | – | – | – | – | – | – | – | – | IC50 (Microsporum canis): 135 nM; IC50 [1]: 115 nM; IC50 (Trichophyton rubrum): 19.5 nM; IC50 (Scedosporium apiospermum): 22.4 µM; IC50 (Scedosporium prolificans): 1740 nM; IC50 (Sporothrix schenkii): 3.55 µM; IC50 (Aspergillus fumigatus): 56.2 nM; IC50 (Candida parapsilosis): 3390 nM; IC50 (Cryptococcus neoformans): 5370 nM; IC50 (Rhizopus oryzae): 12 µM; IC50 (Rhizomucor miehei): > 64.6 µM
Cl.O=C1CCc2cc(C3NCc4c(Cl)cccc4-n4cccc43)ccc21 (stereo not drawn) [Compound 51, 5-(7-chloro-5,6-dihydro-4H-pyrrolo[1,2-a][1,4]benzodiazepin-4-yl)-2,3-dihydro-1H-inden-1-one .HCl] | 5.59 | 5.32 | 5.84 | 4.67 | 5.32 | 4.46 | 5.24 | 4.91 | 4.74 | <4.19 | 4.29 | –
Cl.Clc1cccc2c1CNC(c1ccc3c(c1)CCOC3)c1cccn1-2 (stereo not drawn) [Compound 28, 7-chloro-4-(3,4-dihydro-1H-2-benzopyran-6-yl)-5,6-dihydro-4H-pyrrolo[1,2-a]-[1,4]benzodiazepine .HCl] | 6.24 | 6.29 | 6.66 | 4.97 | 4.63 | <4.19 | 5.99 | 5.53 | 4.71 | <4.19 | 4.39 | –
Clc1cc(Cl)c2c(c1)-n1cccc1C(c1ccc3c(c1)CCC3)=NC2 [Compound 23, 7,9-dichloro-4-(2,3-dihydro-1H-inden-5-yl)-6H-pyrrolo[1,2-a][1,4]benzodiazepine] | – | – | – | – | – | – | – | – | – | – | – | IC50 (Microsporum canis): 1000 nM; IC50 [1]: 794 nM; IC50 (Trichophyton rubrum): 676 nM; IC50 (Scedosporium apiospermum): 24 µM; IC50 (Scedosporium prolificans): 603 nM; IC50 (Sporothrix schenkii): 33.9 µM; IC50 (Aspergillus fumigatus): 912 nM; IC50 (Candida parapsilosis): 2000 nM; IC50 (Cryptococcus neoformans): 457 nM; IC50 (Rhizopus oryzae): > 64.6 µM; IC50 (Rhizomucor miehei): > 64.6 µM
FC1(F)Oc2ccc(C3=NCc4c(Cl)cc(Cl)cc4-n4cccc43)cc2O1 [Compound 79, 7,9-dichloro-4-(2,2-difluoro-1,3-benzodioxol-5-yl)-6H-pyrrolo[1,2-a][1,4]benzo-diazepine] | 6.28 | 5.79 | 6.29 | 5.72 | 5.98 | 4.90 | 5.71 | 5.62 | 5.60 | <4.19 | <4.19 | –
Fc1cccc2c1CN=C(c1ccc3c(c1)CCOC3)c1cccn1-2 [Compound 39, 4-(3,4-dihydro-1H-2-benzopyran-6-yl)-7-fluoro-6H-pyrrolo[1,2-a][1,4]benzo-diazepine] | 6.36 | 6.54 | 6.89 | 5.40 | 5.76 | 4.95 | 6.77 | 5.83 | 5.21 | <4.19 | 4.38 | –
FC1(F)Oc2ccc(C3=NCc4ccc(Cl)cc4-n4cccc43)cc2O1 [Compound 75, 9-chloro-4-(2,2-difluoro-1,3-benzodioxol-5-yl)-6H-pyrrolo[1,2-a][1,4]benzo-diazepine] | 5.74 | 6.42 | 6.85 | <4.19 | <4.19 | 4.85 | 6.24 | 5.09 | 5.84 | <4.19 | <4.19 | –
Fc1cc(F)c2c(c1)-n1cccc1C(c1ccc3c(c1)OC(F)(F)O3)=NC2 [Compound 78, 4-(2,2-difluoro-1,3-benzodioxol-5-yl)-7,9-difluoro-6H-pyrrolo[1,2-a][1,4]benzo-diazepine] | 6.26 | 6.24 | 6.85 | 4.19 | 5.98 | 5.28 | 6.44 | 5.64 | <4.19 | <4.19 | <4.19 | –
FC1(F)Oc2ccc(C3=NCc4c(Cl)cccc4-n4cccc43)cc2O1 [Compound 74, 7-chloro-4-(2,2-difluoro-1,3-benzodioxol-5-yl)-6H-pyrrolo[1,2-a][1,4]benzo-diazepine] | 6.87 | 6.58 | 7.39 | 5.5 | 7.05 | <4.19 | 7.08 | <4.19 | <4.19 | <4.19 | <4.19 | –
Br.Clc1cccc2c1CNC(c1ccc3c(c1)CCC3)c1cccn1-2 (stereo not drawn) [Compound 13, 7-chloro-4-(2,3-dihydro-1H-inden-5-yl)-5,6-dihydro-4H-pyrrolo[1,2-a][1,4]benzo-diazepine .HBr] | 6.36 | 6.95 | 6.47 | 4.52 | 5.72 | 5.15 | 5.70 | 5.52 | 5.30 | <4.19 | <4.19 | –
Clc1cc(Cl)c2c(c1)CN=C(c1ccc3c(c1)CCO3)c1cccn1-2 [Compound 48, 8,10-dichloro-4-(2,3-dihydro-5-benzofuranyl)-6H-pyrrolo[1,2-a][1,4]benzo-diazepine] | 6.30 | 6.29 | 6.78 | 4.94 | 5.79 | 5.40 | 5.00 | <4.19 | 5.70 | <4.19 | <4.19 | –
CN1CCc2cc(C3=NCc4c(Cl)cccc4-n4cccc43)ccc21 [Compound 83, 7-chloro-4-(2,3-dihydro-1-methyl-1H-indol-5-yl)-6H-pyrrolo[1,2-a][1,4]benzo-diazepine] | 5.66 | 5.06 | 5.71 | 4.76 | 5.85 | 5.14 | 5.89 | 5.28 | 5.57 | <4.19 | <4.19 | –
CN1CCc2cc(C3=NCc4c(F)cccc4-n4cccc43)ccc21 [Compound 81, 4-(2,3-dihydro-1-methyl-1H-indol-5-yl)-7-fluoro-6H-pyrrolo[1,2-a][1,4]benzo-diazepine] | 5.28 | 4.90 | 5.65 | – | – | 4.49 | 4.39 | 4.60 | 5.29 | – | – | –
Cl.Clc1cc(Cl)c2c(c1)CNC(c1ccc3c(c1)CCC3)c1cccn1-2 (stereo not drawn) [Compound 17, 8,10-dichloro-4-(2,3-dihydro-1H-inden-5-yl)-5,6-dihydro-4H-pyrrolo[1,2-a][1,4]-benzodiazepine .HCl] | <4.19 | 4.71 | 5.70 | – | – | <4.19 | 5.46 | <4.19 | <4.19 | – | – | –
Clc1ccc2c(c1)-n1cccc1C(c1ccc3c(c1)CCOC3)=NC2 [Compound 41, 9-chloro-4-(3,4-dihydro-1H-2-benzopyran-6-yl)-6H-pyrrolo[1,2-a][1,4]benzo-diazepine] | 4.48 | 4.49 | <4.19 | – | – | <4.19 | <4.19 | 5.60 | 4.52 | – | – | –
